From patent US20190233899A1, “METHODS FOR SELECTING TREATMENT REGIMENS AND PREDICTING OUTCOMES IN CANCER PATIENTS” (BIOMEDICA DIAGNOSTICS INC., priority 2002, published 2019)

Assays:
[1] = First study: Cox proportional hazards analysis of disease-free survival in primary breast cancer patients (n = 761, Munich); assay type: in vivo, human; conditions: primary breast cancer n = 761, median follow-up 48 months; therapy yes vs no
Excerpt: The first study evaluated the clinical relevance of the combination of uPA and PAI-1 in 761 individual primary breast cancer patients (Table 3). Patients either underwent a modified radical mastectomy (n=389) or breast conserving surgery with subsequent breast irradiation (n=372) at the Department of Obstetrics and Gynecology, Technical University of Munich, Germany, between 1987 and 1998. Informed consent for analysis of tumor biological factors was obtained at primary surgery. Therapy decisions were based solely on consensus recommendations at the time but not on uPA and PAI-1. For 745 patients, information on adjuvant systemic therapy was available (Table 3). Median age of the patients at time of primary surgery was 56 years (range: 28-92 years). […] In addition to the collective as a whole, the subset of node-negative patients without adjuvant systemic therapy (n=269; median follow-up 60 months) was analyzed separately (Table 3). […]
In studies involving patients from Munich, uPA and PAI-1 antigen have been prospectively measured by ELISA (uPA: Imubind #894. PAI-1: Imubind #821; both from American Diagnostica Inc., Greenwich, Conn.) since 1987 in all primary breast cancer patients treated at our institution. […] The antigen levels in detergent extracts of breast cancer tissue are expressed as ng of analyte per mg of tissue protein. […]

[2] = Second study: Cox proportional hazards analysis of disease-free survival stratified by data set, primary breast cancer patients (Munich and Rotterdam, n = 3424); assay type: in vivo, human; conditions: for Hazard ratio (95% Confidence interval), multivariate Cox model (DFS), main effect: yes (1) vs. no (0)
Excerpt: The second study involved a total of 3424 primary breast cancer patients from two different data sets. One set was collected from the Department of Obstetrics and Gynecology, Technical University of Munich, Germany, and the other was from the Department of Medical Oncology, Rotterdam Cancer Institute and University Hospital Rotterdam, the Netherlands. Patients had been treated for primary breast cancer between 1987 and 1999. Treatment decisions with regard to primary surgery and adjuvant systemic therapy were based primarily on consensus recommendations at the time. Treatment strategies differed between Munich and Rotterdam, particularly regarding administration of adjuvant systemic therapy to node-positive patients (Table 4b) (Harbeck et al., 2002, J. Clin. Oncology 20:1000-1009; Foekens et al., 2000, Cancer Res. 60:636-643). Of those patients treated by adjuvant chemotherapy, the majority received CMF (Rotterdam: 76%, Munich: 65%); about one-fifth in both collectives received anthracycline-containing regimens (Rotterdam: 24%, Munich: 21%); and the rest of the Munich patients were treated by other chemotherapy regimens. The endocrine treatment used in both collectives was tamoxifen.
Median age of the patients at time of primary surgery was 56 years (range: 22-94 years). Both data sets contained established clinical and histo-morphological factors such as number of involved axillary lymph nodes, pT stage, estrogen receptor status, progesterone receptor status, exposure to adjuvant chemotherapy (CT), adjuvant endocrine therapy (HT), or adjuvant radiotherapy (RT), as well as uPA and PAI-1 measurements. Since the scoring systems for assessment of grade differed substantially between the centers and could thus represent different biological tumor characteristics, grade was not included in the combined stratified analysis. The variables were re-coded as described below in Section 6.1.3. Patients with an uncertain number of affected lymph nodes were included for computing the univariate distributions of ranked variables but not in multivariate survival analysis. Forty-five Rotterdam patients with an uncertain number of affected lymph nodes and three Munich patients with missing information on chemotherapy were not included. At the time of primary therapy, no patient had any clinical or radiological evidence of distant metastases. Follow-up data were obtained at regular intervals. Median follow-up time of all patients still alive at time of analysis was 83 months (range: 1-183 months). Within the follow-up period, 1319 patients (39%) experienced disease recurrence and 1200 patients (35%) died.
In studies involving patients from Munich, uPA and PAI-1 antigen have been prospectively measured by ELISA (uPA: Imubind #894. PAI-1: Imubind #821; both from American Diagnostica Inc., Greenwich, Conn.) since 1987 in all primary breast cancer patients treated at our institution. (Jänicke et al., 1994, Cancer Res. 54: 2527-2530). The antigen levels in detergent extracts of breast cancer tissue are expressed as ng of analyte per mg of tissue protein. In the study involving Rotterdam patients, uPA and PAI-1 antigen were measured by ELISA, employing the same antibodies as above, in cytosol preparations of the primary tumor as described by Foekens et al., 2000, Cancer Res., 60:636-643.
Due to differences in measurement techniques between the Munich and Rotterdam data sets, data re-coding was required. For the laboratory measurements of uPA, PAI-1, Estrogen receptor, and progesterone receptor, fractional ranks were computed with respect to each distribution. Fractional ranks also keep the variables on a convenient scale from zero to one, thus facilitating comparison of the […] coefficients of different factors. In particular, ranked estrogen receptor and progesterone receptor measurements were included as continuous variables in the statistical models, even though biochemical and immunohistochemical assays were used. […]

CC/C(=C(\c1ccccc1)c1ccc(OCCN(C)C)cc1)c1ccccc1 [Adjuvant endocrine therapy, tamoxifen]
Disease-free survival (DFS) multivariate Relative risk (95% Confidence interval) [1]: 0.5 (0.3-0.7) | HR (DFS) of therapy, separate Cox model ([2]; 0-3 affected lymph nodes, high-uPA/PAI-1 subgroup n=1174): 0.51 (0.33-0.78) | 95% CI for the HR (DFS) of therapy, separate Cox model ([2]; 0-3 affected lymph nodes, low-uPA/PAI-1 group n=1418, not significant): 0.59-1.44 | HR (DFS) of therapy, separate Cox regression (2-stage model) ([2]; 4 or more affected nodes, low-uPA/PAI-1 subgroup): 0.62 (95% CI, 0.43-0.90) | HR (DFS) of therapy, separate Cox regression model ([2]; 4 or more nodes, high uPA/PAI-1): 0.68 (95% CI, 0.49-0.95) | Hazard ratio (95% Confidence interval), multivariate Cox model (DFS), main effect ([2]; all patients n = 3,376): 0.68 (0.56-0.82) | Hazard ratio (95% Confidence interval), multivariate Cox model (DFS), main effect ([2]; all patients n = 3,376, listed as HT): 0.68 | HR (DFS) due to therapy, separate multivariate Cox model ([2]; all patients, high-uPA/PAI-1 subgroup): 0.63 | HR (DFS) due to therapy, separate multivariate Cox model ([2]; all patients, low-uPA/PAI-1 subgroup): 0.74 | 95% CI for HR of interaction HT with uPA/PAI-1 (DFS) ([2]; all patients, no significant interaction): 0.66-1.28 | Hazard ratio (95% Confidence interval), multivariate Cox model (DFS), main effect ([2]; patients with 0-3 involved axillary nodes n = 2592): 0.66 (0.48-0.90) | Hazard ratio (95% Confidence interval), multivariate Cox model (DFS), main effect ([2]; patients with 4 or more involved axillary nodes n = 784): 0.68 (0.53-0.87)
